pEC50: −log10 of the molar value.
Tests used:
ER beta = molecular target: T1, ER beta (Homo sapiens, UniProt Q92731); assay: Selectivity, binding assay
T1 construct: Eurofine Cerep / Eurofine Panlabs Discovery Services
Text: (§1) Compound 20p was screened against a broad panel of NRs and GPCRs to determine its agonist activity in vitro. […]
(§2) The selectivity tests of compound 20p were investigated by Eurofine Cerep (86600, Celle-Levescault, France) and Eurofine Panlabs Discovery Services (No. 25, Wugong, 6th Road, Wugu District, New Taipai City, Taiwan). Compound binding was caluculated as a % inhibition of the binding of radioactively labeled ligand specific for each target. Cellular agonist effect wa calculated as a % of control response to a known reference agonist for each target and cellular antagonist effect as caluculated as a % inhibition of control reference agonist response for each target at 30 µM of compound 20p.
(§3) 12.3%; CAR -2.5%, PPAR alpha 0.0%; PPAR delta -3.6%; PPAR gamma -1.0%; PXR 4.5%; ER alpha -16.6%; ER beta 17% at 30 µM.

RXR alpha = molecular target: T2, RXR alpha (Homo sapiens, UniProt P19793); assay: Selectivity, binding assay
T2 construct: Eurofine Cerep / Eurofine Panlabs Discovery Services
Text: as §1, §2, §3

ER alpha = molecular target: T3, ER alpha (Homo sapiens, UniProt P03372); assay: Selectivity, binding assay
T3 construct: Eurofine Cerep / Eurofine Panlabs Discovery Services
Text: as §1, §2, §3

GPR119 = molecular target: T4, GPR119 (Homo sapiens, UniProt Q8TDV5); assay: Selectivity, cellular functional assay; assay type: cell-based
T4 construct: Eurofine Cerep / Eurofine Panlabs Discovery Services
Text: as §1, §2, §3

GPR40 = molecular target: T5, GPR40 (Homo sapiens, UniProt O14842); assay: Selectivity, cellular functional assay; assay type: cell-based
T5 construct: Eurofine Cerep / Eurofine Panlabs Discovery Services
Text: as §1, §2, §3

GPR120 = molecular target: T6, GPR120 (Homo sapiens, UniProt Q5NUL3); assay: Selectivity, cellular functional assay; assay type: cell-based
T6 construct: Eurofine Cerep / Eurofine Panlabs Discovery Services
Text: as §1, §2, §3

GPCRs and NRs = assay: Broad panel of NRs and GPCRs; details: in vitro agonist activity
Text: as §1, §2, §3

FXR = details: cited from earlier work
TGR5 = molecular target: T7, TGR5 (Homo sapiens, UniProt Q8TDU6); details: cited from earlier work
T7 construct: host or cells: CHO cells
T7 sequence (Q8TDU6 1-330): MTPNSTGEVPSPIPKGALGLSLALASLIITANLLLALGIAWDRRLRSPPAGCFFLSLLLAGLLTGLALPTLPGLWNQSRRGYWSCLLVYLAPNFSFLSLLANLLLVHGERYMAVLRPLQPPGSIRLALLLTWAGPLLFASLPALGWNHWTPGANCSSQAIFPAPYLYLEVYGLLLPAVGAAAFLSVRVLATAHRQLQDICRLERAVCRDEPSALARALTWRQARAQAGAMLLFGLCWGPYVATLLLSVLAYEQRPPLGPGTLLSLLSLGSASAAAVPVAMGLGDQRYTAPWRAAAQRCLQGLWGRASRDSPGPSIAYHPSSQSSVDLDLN

T4 sequence (Q8TDV5 whole entry): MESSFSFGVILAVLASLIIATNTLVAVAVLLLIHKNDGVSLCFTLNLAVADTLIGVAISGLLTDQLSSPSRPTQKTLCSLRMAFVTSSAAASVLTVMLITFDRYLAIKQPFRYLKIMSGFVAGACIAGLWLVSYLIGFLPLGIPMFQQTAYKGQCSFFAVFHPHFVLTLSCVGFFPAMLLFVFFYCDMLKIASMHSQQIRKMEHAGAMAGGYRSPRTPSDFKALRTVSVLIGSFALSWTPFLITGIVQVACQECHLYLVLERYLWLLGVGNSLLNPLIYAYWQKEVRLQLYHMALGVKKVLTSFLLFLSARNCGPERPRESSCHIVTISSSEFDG
T1 sequence (Q92731 whole entry): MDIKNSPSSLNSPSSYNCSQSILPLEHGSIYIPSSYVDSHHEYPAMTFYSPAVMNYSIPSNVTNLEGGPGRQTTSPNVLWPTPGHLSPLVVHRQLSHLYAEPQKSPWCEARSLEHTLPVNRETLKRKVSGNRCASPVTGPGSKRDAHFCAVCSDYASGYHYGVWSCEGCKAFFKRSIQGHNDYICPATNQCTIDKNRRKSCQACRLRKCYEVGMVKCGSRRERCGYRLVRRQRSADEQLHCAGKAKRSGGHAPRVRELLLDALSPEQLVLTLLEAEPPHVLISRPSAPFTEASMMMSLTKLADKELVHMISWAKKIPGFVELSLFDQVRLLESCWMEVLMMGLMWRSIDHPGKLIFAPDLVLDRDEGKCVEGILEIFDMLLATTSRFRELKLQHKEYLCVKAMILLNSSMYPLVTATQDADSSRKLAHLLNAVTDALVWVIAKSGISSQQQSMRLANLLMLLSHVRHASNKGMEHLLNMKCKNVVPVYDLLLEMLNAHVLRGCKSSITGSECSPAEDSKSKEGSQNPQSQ
T6 sequence (Q5NUL3 whole entry): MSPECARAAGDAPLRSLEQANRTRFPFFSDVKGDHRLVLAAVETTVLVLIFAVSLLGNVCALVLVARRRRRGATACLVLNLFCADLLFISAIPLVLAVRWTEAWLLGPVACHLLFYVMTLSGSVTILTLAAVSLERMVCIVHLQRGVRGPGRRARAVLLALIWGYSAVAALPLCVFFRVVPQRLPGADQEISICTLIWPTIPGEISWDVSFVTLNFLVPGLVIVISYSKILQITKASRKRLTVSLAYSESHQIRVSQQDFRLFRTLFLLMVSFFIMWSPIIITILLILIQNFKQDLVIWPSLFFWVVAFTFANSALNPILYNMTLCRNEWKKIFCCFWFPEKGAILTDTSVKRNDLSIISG
T5 sequence (O14842 whole entry): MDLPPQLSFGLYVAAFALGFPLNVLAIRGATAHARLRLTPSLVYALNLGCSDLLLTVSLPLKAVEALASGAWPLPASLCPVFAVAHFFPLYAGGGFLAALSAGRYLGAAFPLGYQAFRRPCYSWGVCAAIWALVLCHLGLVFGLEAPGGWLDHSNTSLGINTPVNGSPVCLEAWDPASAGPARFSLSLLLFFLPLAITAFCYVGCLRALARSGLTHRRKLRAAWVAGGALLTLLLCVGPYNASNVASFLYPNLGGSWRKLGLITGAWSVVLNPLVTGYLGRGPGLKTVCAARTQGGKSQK
T2 sequence (P19793 whole entry): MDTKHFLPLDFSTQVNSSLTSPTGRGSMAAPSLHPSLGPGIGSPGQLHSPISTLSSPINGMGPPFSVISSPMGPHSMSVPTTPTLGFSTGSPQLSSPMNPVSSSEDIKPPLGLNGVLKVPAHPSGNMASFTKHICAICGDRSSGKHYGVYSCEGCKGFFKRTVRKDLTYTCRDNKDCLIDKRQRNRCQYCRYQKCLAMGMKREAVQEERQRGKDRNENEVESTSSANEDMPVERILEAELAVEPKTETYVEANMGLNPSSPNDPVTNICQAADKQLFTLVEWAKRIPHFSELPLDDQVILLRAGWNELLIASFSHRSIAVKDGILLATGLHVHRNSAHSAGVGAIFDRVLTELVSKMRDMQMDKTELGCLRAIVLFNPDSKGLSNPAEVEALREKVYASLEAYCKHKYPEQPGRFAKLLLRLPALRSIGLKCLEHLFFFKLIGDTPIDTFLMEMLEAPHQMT
T3 sequence (P03372 whole entry): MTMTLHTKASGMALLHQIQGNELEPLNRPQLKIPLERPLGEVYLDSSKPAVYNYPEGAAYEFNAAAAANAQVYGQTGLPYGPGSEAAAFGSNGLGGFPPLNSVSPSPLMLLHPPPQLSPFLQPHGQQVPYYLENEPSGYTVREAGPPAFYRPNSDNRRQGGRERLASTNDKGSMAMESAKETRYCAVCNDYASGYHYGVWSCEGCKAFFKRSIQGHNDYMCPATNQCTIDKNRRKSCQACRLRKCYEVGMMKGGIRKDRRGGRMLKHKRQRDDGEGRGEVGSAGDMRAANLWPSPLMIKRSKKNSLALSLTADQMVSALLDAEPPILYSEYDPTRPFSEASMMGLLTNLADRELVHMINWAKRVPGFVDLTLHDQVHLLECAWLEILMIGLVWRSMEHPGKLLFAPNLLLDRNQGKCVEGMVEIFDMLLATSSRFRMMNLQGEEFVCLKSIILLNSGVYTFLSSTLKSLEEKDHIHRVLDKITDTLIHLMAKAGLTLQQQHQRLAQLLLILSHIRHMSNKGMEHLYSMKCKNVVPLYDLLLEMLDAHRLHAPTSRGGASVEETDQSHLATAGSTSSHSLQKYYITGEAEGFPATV

| Compound | inhibition at 30 µM (ER beta; 30 µM, read-out: ER beta binding, % inhibition of the binding of radioactively labeled ligand) [%] | pEC50 (ER beta; binding assay) | inhibition at 30 µM (RXR alpha; 30 µM, read-out: RXR alpha binding, % inhibition of the binding of radioactively labeled ligand) [%] | pEC50 (RXR alpha; binding assay) | inhibition at 30 µM (ER alpha; 30 µM, read-out: ER alpha binding, % inhibition of the binding of radioactively labeled ligand) [%] | pEC50 (ER alpha; binding assay) | activity at 30 µM (GPR119; 30 µM, read-out: GPR119 cellular agonist effect, % of control response to reference agonist) [%] | pEC50 (GPR119; cellular functional assay) | activity at 30 µM (GPR40; 30 µM, read-out: GPR40 cellular agonist effect, % of control response to reference agonist) [%] | pEC50 (GPR40; cellular functional assay) | activity at 30 µM (GPR120; 30 µM, read-out: GPR120 cellular agonist effect, % of control response to reference agonist) [%] | pEC50 (GPR120; cellular functional assay) | Off-target activity against GPCRs and NRs (in words) (GPCRs and NRs) | Reported FXR activity (in words) (FXR) | Reported TGR5 activity (in words) (TGR5) |
| --- | --- | --- | --- | --- | --- | --- | --- | --- | --- | --- | --- | --- | --- | --- | --- |
| COc1cc(Cl)cc(N(CC23CCC(c4ccc(OC)c(C#N)c4)(CC2)CC3)C(=O)c2ccncc2C)c1 [Compound 20p] | 17 | < 4.52 | -12.3 | < 4.52 | -16.6 | < 4.52 | 1.8 | < 4.52 | 5.9 | < 4.52 | -5.2 | < 4.52 | no significant off-target activity against GPCRs and NRs |  |  |
| COC(=O)/C=C/c1cccc(N(Cc2ccc(-c3ccc(N(C)C)cc3)cc2)C(=O)C2CCCCC2)c1 [Compound 7, Fexaramine, reference compound] |  |  |  |  |  |  |  |  |  |  |  |  |  | specific and potent partial agonist against FXR | no significant agonist activity against TGR5 |

— paper PMC8080777, “Discovery, optimization, and evaluation of non-bile acid FXR/TGR5 dual agonists” (Scientific Reports, 2021)
